Measurements taken from patent US10233186B2, “Inhibitors of activin receptor-like kinase” (BLUEPRINT MEDICINES CORPORATION, priority 2016, dated 2019).

Columns and labels:
[1] = molecular target: T1, ALK2 R206H (GST-tagged mutant ALK2) (Homo sapiens, UniProt Q04771, R206H); experiment: ALK binding assay (LANTHASCREEN TR-FRET competitive binding, displacement of Kinase Tracer 178); details: ALK2 R206H, LANTHASCREEN TR-FRET competitive binding; read-out: Binding Assay (IC50)
T1 construct: purchased Carna Bioscience or ThermoFisher 09-148 or PV6232
T1 sequence (Q04771 21-509 R206H): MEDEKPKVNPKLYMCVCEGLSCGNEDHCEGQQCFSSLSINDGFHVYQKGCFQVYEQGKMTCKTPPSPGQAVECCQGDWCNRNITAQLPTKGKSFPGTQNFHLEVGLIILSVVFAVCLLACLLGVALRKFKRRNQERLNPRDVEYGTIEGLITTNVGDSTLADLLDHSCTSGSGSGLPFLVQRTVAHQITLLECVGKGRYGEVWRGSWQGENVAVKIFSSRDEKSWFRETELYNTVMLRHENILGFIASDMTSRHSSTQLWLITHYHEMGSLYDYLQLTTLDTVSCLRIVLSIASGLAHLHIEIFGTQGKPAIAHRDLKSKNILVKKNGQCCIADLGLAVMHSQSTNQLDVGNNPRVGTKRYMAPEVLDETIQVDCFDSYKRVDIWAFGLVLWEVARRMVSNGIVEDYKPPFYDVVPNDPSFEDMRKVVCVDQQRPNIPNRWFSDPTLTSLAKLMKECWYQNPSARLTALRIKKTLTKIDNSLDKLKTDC

human ALK2 R206H = molecular target: T2, human ALK2 R206H (Homo sapiens, UniProt Q04771, R206H); experiment: Cell-based ALK2-R206H cell activity assay (Smad1-Ser463/Ser465 phosphorylation by AlphaLISA in HEK293-ALK2-R206H cells); details: read-out: Cell Line (Cell Assay IC50)
T2 construct: expressed in transfected cells; host or cells: HEK293 (ATCC CRL1573), lentivirus transduction, blasticidin selection
T2 sequence (Q04771 21-509 R206H): T1 sequence (Q04771 21-509 R206H)
Procedure, shortened: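 Stable HEK293 cells expressing C-terminally FLAG-tagged human ALK2 R206H (lentiviral, blasticidin-selected) were treated with compounds in 10-point, 3-fold dilutions from 10 μM or 1 μM top, in duplicate. Smad1 Ser463/Ser465 phosphorylation was read by AlphaLISA.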

| SMILES | IC50 [1] | IC50 (human ALK2 R206H) |
| --- | --- | --- |
| CC(C)N1CCC(C#N)(c2ccc(-c3cc4c(N5CCN(C(=O)C6CC6)CC5)ccnn4c3)cc2)CC1 [Compound 615] | < 10 nM | < 100 nM |
| COC1(c2ccc(-c3cc4c(N5CCN(C(=O)C6CC6)CC5)ccnn4c3)nc2)CCN(C(C)C)CC1 [Compound 624] | < 10 nM | < 100 nM |
| CC(C)NC(=O)N1CCN(c2ccnn3cc(-c4ccc(C5(C)CCN(C(C)C)CC5)cc4)cc23)CC1 [Compound 628] | < 10 nM | < 100 nM |
| CC(C)N1CCC[C@@H](c2ccc(-c3cc4c(N5CCN(C(=O)OC6COC6)CC5)ccnn4c3)nc2)C1 [Compound 635] | < 10 nM | < 100 nM |
| CC(C)N1CCC[C@H](c2ccc(-c3cc4c(N5CCN(C(=O)OC6COC6)CC5)ccnn4c3)nc2)C1 [Compound 636] | < 10 nM | < 100 nM |
| CO[C@]1(c2ccc(-c3cc4c(N5CCN(C(=O)NC(C)C)CC5)ccnn4c3)cc2)CCN(C(C)C)C1 [Compound 637] | < 10 nM | < 100 nM |
| CO[C@@]1(c2ccc(-c3cc4c(N5CCN(C(=O)NC(C)C)CC5)ccnn4c3)cc2)CCN(C(C)C)C1 [Compound 638] | < 10 nM | < 100 nM |
| CCOC(=O)N1CCN(c2ccnn3cc(-c4ccc([C@]5(C)CN(C(C)C)CCN5C)cc4)cc23)CC1 [Compound 641] | < 10 nM | < 100 nM |
| CCOC(=O)N1CCN(c2ccnn3cc(-c4ccc([C@@]5(C)CN(C(C)C)CCN5C)cc4)cc23)CC1 [Compound 642] | < 10 nM | < 100 nM |
| CCOC(=O)N1CCN(c2ccnn3cc(-c4ccc(C5(OC)CCN(C(C)C)CC5)cc4)cc23)CC1 [Compound 643] | < 10 nM | < 100 nM |
| CCNC(=O)N1CCN(c2ccnn3cc(-c4ccc(C5(OC)CCN(C(C)C)CC5)cn4)cc23)CC1 [Compound 644] | < 10 nM | < 100 nM |
| CCNC(=O)N1CCN(c2ccnn3cc(-c4ccc([C@]5(OC)CCCN(C(C)C)C5)cn4)cc23)CC1 [Compound 645] | < 10 nM | < 100 nM |
| CCNC(=O)N1CCN(c2ccnn3cc(-c4ccc([C@@]5(OC)CCCN(C(C)C)C5)cn4)cc23)CC1 [Compound 646] | < 10 nM | < 100 nM |
| CCOC1(c2ccc(-c3cc4c(N5CCN(C(=O)OC6COC6)CC5)ccnn4c3)nc2)CCNCC1 [Compound 647] | < 10 nM | < 100 nM |
| CC(C)NC(=O)N1CCN(c2ccnn3cc(-c4ccc(C5(F)CCN(C(C)C)CC5)cc4)cc23)CC1 [Compound 648] | < 10 nM | < 100 nM |
| CC(C)NC(=O)N1CCN(c2ccnn3cc(-c4ccc(C5CCN(C(C)C)CC5)cc4F)cc23)CC1 [Compound 649] | < 10 nM | < 100 nM |
| COC1(c2ccc(-c3cc4c(N5CCN(C(=O)OC6COC6)CC5)ccnn4c3)c(F)c2)CCNCC1 [Compound 650] | < 10 nM | < 100 nM |
| CCOC(=O)N1CCN(c2ccnn3cc(-c4ccc(C5CCN(C(C)C)CC5)cc4Cl)cc23)CC1 [Compound 651] | < 10 nM | < 100 nM |
| CC(C)N1CCC(c2ccc(-c3cc4c(N5CCN(C(=O)OCC(F)F)CC5)ccnn4c3)cc2)CC1 [Compound 652] | < 10 nM | < 100 nM |
| CC(C)N1CCC[C@@H](c2ccc(-c3cc4c(N5CCN(C(=O)[C@H]6C[C@H](C#N)C6)CC5)ccnn4c3)nc2)C1 [Compound 653] | < 10 nM | < 100 nM |
| CC(C)N1CCC[C@H](c2ccc(-c3cc4c(N5CCN(C(=O)[C@H]6C[C@H](C#N)C6)CC5)ccnn4c3)nc2)C1 [Compound 654] | < 10 nM | < 100 nM |
| COC1(c2ccc(-c3cc4c(N5CCN(C(=O)C6CC(C#N)C6)CC5)ccnn4c3)cc2)CN(C(C)C)C1 (stereo not drawn) [Compound 655] | < 10 nM | < 100 nM |
| CCO[C@@]1(c2ccc(-c3cc4c(N5CCN(C(=O)C6CC6)CC5)ccnn4c3)cc2)CCCN(C(C)C)C1 [Compound 656] | < 10 nM | < 100 nM |
| CCO[C@]1(c2ccc(-c3cc4c(N5CCN(C(=O)C6CC6)CC5)ccnn4c3)cc2)CCCN(C(C)C)C1 [Compound 657] | < 10 nM | < 100 nM |
| CCOC1(c2ccc(-c3cc4c(N5CCN(C(=O)C6CC6)CC5)ccnn4c3)cc2)CCN(C(C)C)CC1 [Compound 658] | < 10 nM | < 100 nM |

Further lines, results first:

| IC50 [1] | IC50 (human ALK2 R206H) | SMILES |
| --- | --- | --- |
| < 10 nM | < 100 nM | CC(C)N1CC(O)(c2ccc(-c3cc4c(N5CCN(C(=O)C6CC(C#N)C6)CC5)ccnn4c3)cc2)C1 (stereo not drawn) [Compound 616] |
| < 10 nM | 100 to 500 nM | CC(C)N1CCC[C@@H](c2ccc(-c3cc4c(N5CCN(C(=O)NCCC#N)CC5)ccnn4c3)cc2)C1 [Compound 617] |
| < 10 nM | < 100 nM | CC(C)N1CCC[C@H](c2ccc(-c3cc4c(N5CCN(C(=O)NCCC#N)CC5)ccnn4c3)cc2)C1 [Compound 618] |
| < 10 nM | < 100 nM | CC(C)N1CCN(C)[C@](C)(c2ccc(-c3cc4c(N5CCN(C(=O)C6CC6)CC5)ccnn4c3)cc2)C1 [Compound 619] |
| < 10 nM | < 100 nM | CC(C)N1CCN(C)[C@@](C)(c2ccc(-c3cc4c(N5CCN(C(=O)C6CC6)CC5)ccnn4c3)cc2)C1 [Compound 620] |
| < 10 nM | 100 to 500 nM | CC(C)N1CCC(c2ccc(-c3cc4c(N5CCN(C(=O)OC6CCC6)CC5)ccnn4c3)cc2)CC1 [Compound 621] |
| < 10 nM | > 500 nM | COC(=O)NC1(c2ccc(-c3cc4c(N5CCN(C(=O)C6CC6)CC5)ccnn4c3)cc2)CCNCC1 [Compound 622] |
| < 10 nM | 100 to 500 nM | CC(C)N1CC2(CN(c3ccc(-c4cc5c(N6CCN(C(=O)[C@H]7C[C@@H]7F)CC6)ccnn5c4)cc3)C2)C1 [Compound 623] |
| < 10 nM | < 100 nM | CO[C@@]1(c2ccc(-c3cc4c(N5CCN(C(=O)C6CC6)CC5)ccnn4c3)nc2)CCCN(C(C)C)C1 [Compound 625] |
| < 10 nM | < 100 nM | CO[C@]1(c2ccc(-c3cc4c(N5CCN(C(=O)C6CC6)CC5)ccnn4c3)nc2)CCCN(C(C)C)C1 [Compound 626] |
| < 10 nM | < 100 nM | CC(C)N1CCC(c2ccc(-c3cc4c(N5CCN(C(=O)NC6COC6)CC5)ccnn4c3)cc2)CC1 [Compound 627] |
| < 10 nM | < 100 nM | CC(C)N1CCC(c2ccc(-c3cc4c(N5CCN(C(=O)OC6COC6)CC5)ccnn4c3)cc2)CC1 [Compound 629] |
| < 10 nM | < 100 nM | CC(C)N1CCC[C@H](c2ccc(-c3cc4c(N5CCN(C(=O)OC6COC6)CC5)ccnn4c3)cc2)C1 [Compound 630] |
| < 10 nM | < 100 nM | CC(C)N1CCC[C@@H](c2ccc(-c3cc4c(N5CCN(C(=O)OC6COC6)CC5)ccnn4c3)cc2)C1 [Compound 631, (S)-oxetan-3-yl 4-(6-(4-(1-isopropylpiperidin-3-yl)phenyl)pyrrolo[1,2-b]pyridazin-4-yl)piperazine-1-carboxylate] |
| < 10 nM | 100 to 500 nM | CC(C)N1CCC(c2ccc(-c3cc4c(N5CCN(C(=O)OC(C)(C)C)CC5)ccnn4c3)cc2)CC1 [Compound 632] |
| < 10 nM | < 100 nM | CC(C)NC(=O)N1CCN(c2ccnn3cc(-c4ccc([C@@]5(C)CN(C(C)C)CCN5)cc4)cc23)CC1 [Compound 633] |
| < 10 nM | < 100 nM | CC(C)NC(=O)N1CCN(c2ccnn3cc(-c4ccc([C@]5(C)CN(C(C)C)CCN5)cc4)cc23)CC1 [Compound 634] |
